Test results published in ChEMBL document CHEMBL4011606, “Synthesis and antiplasmodial activity of novel indoleamide derivatives bearing sulfonamide and triazole pharmacophores” (Eur J Med Chem, 2017).

Experiments:
[1] = Cytotoxicity against African green monkey Vero cells measured after 3 days by resazurin dye based fluorescence assay; format: cell-based; settings: chlorocebus sabaeus
[2] = Selectivity index, ratio of CC50 for African green monkey Vero cells to IC50 for chloroquine-sensitive Plasmodium falciparum 3D7; format: toxicity; settings: read-out: Ratio CC50/IC50
[3] = Resistance index, ratio of IC50 for chloroquine-resistant Plasmodium falciparum K1 to IC50 for chloroquine-sensitive Plasmodium falciparum 3D7; format: functional
[4] = Selectivity index, ratio of CC50 for African green monkey Vero cells to IC50 for chloroquine-resistant Plasmodium falciparum K1; format: toxicity; settings: read-out: Ratio CC50/IC50
Plasmodium falciparum [5] = experiment: Antiplasmodial activity against chloroquine-resistant Plasmodium falciparum K1 infected in human erythrocytes measured after 72 hrs by SYBR green 1 dye based fluorescence assay; format: functional, cell-based; settings: K1, 72 h
Plasmodium falciparum [6] = experiment: Antiplasmodial activity against chloroquine-sensitive Plasmodium falciparum 3D7 infected in human erythrocytes measured after 72 hrs by SYBR green 1 dye based fluorescence assay; format: functional, cell-based; settings: 3D7, 72 h

Structure (SMILES) | CC50 at 72 h [1] | selectivity ratio [2] | Ratio IC50 [3] | selectivity ratio [4] | IC50 (Plasmodium falciparum [5]) | IC50 (Plasmodium falciparum [6])
O=C(CCCc1cn(S(=O)(=O)c2ccccc2)c2ccccc12)NC12CC3CC(CC(C3)C1)C2 | > 250 µM | > 49 | 0.48 | > 101 | 2.46 µM | 5.04 µM
O=C(CCCc1cn(Cc2ccc(Br)cc2)c2ccccc12)NC12CC3CC(CC(C3)C1)C2 | > 250 µM | > 79 | 1.06 | > 74 | 3.35 µM | 3.15 µM
CC(C)(C)c1ccc(S(=O)(=O)n2cc(CCCC(=O)NC3C4CC5CC(C4)CC3C5)c3ccccc32)cc1 (configuration not stated) | > 250 µM | > 74 | 1.27 | > 58 | 4.26 µM | 3.35 µM
O=C(CCCc1cn(S(=O)(=O)c2ccc(F)cc2)c2ccccc12)NC12CC3CC(CC(C3)C1)C2 | > 250 µM | > 85 | 1.26 | > 67 | 3.73 µM | 2.94 µM
Cc1ccc(S(=O)(=O)n2cc(CCCC(=O)NC34CC5CC(CC(C5)C3)C4)c3ccccc32)cc1 | > 250 µM | > 62 | 0.98 | > 63 | 3.95 µM | 3.99 µM
O=C(CCCc1cn(CCN2CCOCC2)c2ccccc12)NC1CCCCCC1 | > 250 µM | > 60 | 1.77 | > 35 | 7.04 µM | 4.15 µM
O=C(CCCc1cn(Cc2ccc(F)cc2)c2ccccc12)NC12CC3CC(CC(C3)C1)C2 | > 250 µM | > 113 | 1.59 | > 71 | 3.5 µM | 2.2 µM
Cc1ccc(S(=O)(=O)n2cc(CCCC(=O)NC3CCCCCC3)c3ccccc32)cc1 | > 250 µM | > 73 | 0.96 | > 76 | 3.27 µM | 3.38 µM
CCCCCCCn1cc(CCCC(=O)NC23CC4CC(CC(C4)C2)C3)c2ccccc21 | > 250 µM | > 130 | 1.84 | > 70 | 3.53 µM | 1.91 µM
Cc1cc(S(=O)(=O)n2cc(CCCC(=O)NC34CC5CC(CC(C5)C3)C4)c3ccccc32)c(C)cc1Cl | > 250 µM | > 129 | 1.15 | > 112 | 2.12 µM | 1.93 µM
O=C(CCCc1cn(Cc2cn(Cc3ccccc3)nn2)c2ccccc12)NC12CC3CC(CC(C3)C1)C2 | > 250 µM | > 115 | > 4.62 | > 25 | > 10 µM | 2.16 µM
O=C(Cc1c[nH]c2ccccc12)NCc1cn(CC(=O)Nc2ccc(I)cc2)nn1 | > 250 µM | > 65 | 0.58 | > 111 | 2.25 µM | 3.83 µM
